Experimental data taken from ChEMBL document CHEMBL1139712, “Interaction of N1-unsubstituted and N1-benzenesulfonyltryptamines at h5-HT6 receptors” (Bioorg Med Chem Lett, 2006).

target: 5-hydroxytryptamine receptor 6 (Homo sapiens, UniProt P50406); assay: Displacement of [3H]LSD from human 5HT6 receptor expressed in HEK293 cells; format: cell-based
Sequence (P50406 whole entry): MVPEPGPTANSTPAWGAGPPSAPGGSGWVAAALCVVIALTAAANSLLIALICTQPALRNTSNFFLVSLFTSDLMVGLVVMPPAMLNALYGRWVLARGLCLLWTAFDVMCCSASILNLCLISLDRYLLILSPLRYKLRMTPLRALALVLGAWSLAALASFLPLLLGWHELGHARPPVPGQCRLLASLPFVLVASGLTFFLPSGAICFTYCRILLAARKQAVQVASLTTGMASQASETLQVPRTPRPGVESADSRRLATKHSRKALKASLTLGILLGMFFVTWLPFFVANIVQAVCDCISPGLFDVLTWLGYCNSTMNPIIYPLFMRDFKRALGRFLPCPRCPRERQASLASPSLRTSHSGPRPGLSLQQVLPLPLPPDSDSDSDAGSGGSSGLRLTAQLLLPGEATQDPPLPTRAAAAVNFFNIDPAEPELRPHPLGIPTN

Row | Structure (SMILES) | Ki
1 | CCN(CC)CCc1c[nH]c2ccccc12 | 575 nM
2 | CN(C)CCc1cn2c3c(cccc13)-c1ccccc1S2(=O)=O | 4500 nM
3 | CCN(CC)CCc1cn(S(=O)(=O)c2ccccc2)c2ccccc12 | 14 nM
4 | COc1ccc2[nH]cc(CCN(C)Cc3ccccc3)c2c1 | 106 nM
5 | COc1ccc2c(CCN(C)C)cn(S(=O)(=O)c3ccccc3)c2c1 | 15 nM
6 | COc1cccc2c1c(CCN(C)C)cn2S(=O)(=O)c1ccccc1 | 11 nM
7 | CN(C)CCc1c2n(c3ccccc13)S(=O)(=O)c1ccccc1-2 | 143 nM
